In patent publication US20160280736A1, “CYCLIC PEPTIDE COMPOUND, AND PREPARATION METHOD, PHARMACEUTICAL COMPOSITION AND USE THEREOF” (HANGZHOU GUANYU BIO-MEDICAL CO., LTD., priority 2013, published 2016):
Where two headings read alike, the source gives them in different places.

Assays:
[1] = test system: MOLT-4 (human acute lymphoblastic leukemia cells); test: MTT cancer cell growth inhibition; format: cell-based; settings: 72 hours incubation
Excerpt: (§1) MTT assay principle is yellow MTT can penetrate membrane into the cell, succinic dehydrogenase of the mitochondria in living cells can make exogenous MTT reduction of insoluble in water of blue-violet acicular formazan for crystallization and deposition in the cell, crystallization can be dissolved dimethyl sulfoxide (DMSO) solution, detected its absorbance at 490 nm/570 nm wavelength by enzyme-linked immunosorbent assay, which can reflect the number of cells.
(§2) Using DMEM+10% FBS culture medium or using 1640+10% FBS culture, respectively.
(§3) Experimental group: 190 μl cell suspension+10 μl different concentrations of drugs (the final concentration is 10^−5˜10^−10 M)
(§4) a) Cells were seeded in 96-well plates with the inoculation of 1500/well, 190 μl/hole, 37° C., 5% of CO2 incubator overnight;
(§5) b) The next day each well was added 10 μl of different drugs. The final concentration of drug was 10^−5˜10^−10 M, three parallel holes; 37° C., 5% CO2 culture incubator for 72 hours incubation;
(§6) c) Per well was added 20 μl 5 mg/ml of MTT, 37° C., 5% CO2 culture incubator for 4 hours incubation;
(§7) d) The supernatant was discarded. Each well was added 100 μl of DMSO and oscillation;
(§8) e) 570 nm readings. Calculate cell viability. GI50 calculation based on the results.

[2] = test system: N-87 (human gastric cancer cells); test: MTT cancer cell growth inhibition; format: cell-based; settings: 72 h, N-87 cells, 72 hours incubation
Excerpt: as §1, §2, §3, §4, §5, §6, §7, §8

HDAC7 = target: T1, HDAC7 (Homo sapiens, UniProt Q8WUI4); test: HDAC biochemical activity measurement (fluorescent substrate deacetylation); settings: HDAC7 enzyme, 37°, 30 minutes
T1 sequence (Q8WUI4 1-952): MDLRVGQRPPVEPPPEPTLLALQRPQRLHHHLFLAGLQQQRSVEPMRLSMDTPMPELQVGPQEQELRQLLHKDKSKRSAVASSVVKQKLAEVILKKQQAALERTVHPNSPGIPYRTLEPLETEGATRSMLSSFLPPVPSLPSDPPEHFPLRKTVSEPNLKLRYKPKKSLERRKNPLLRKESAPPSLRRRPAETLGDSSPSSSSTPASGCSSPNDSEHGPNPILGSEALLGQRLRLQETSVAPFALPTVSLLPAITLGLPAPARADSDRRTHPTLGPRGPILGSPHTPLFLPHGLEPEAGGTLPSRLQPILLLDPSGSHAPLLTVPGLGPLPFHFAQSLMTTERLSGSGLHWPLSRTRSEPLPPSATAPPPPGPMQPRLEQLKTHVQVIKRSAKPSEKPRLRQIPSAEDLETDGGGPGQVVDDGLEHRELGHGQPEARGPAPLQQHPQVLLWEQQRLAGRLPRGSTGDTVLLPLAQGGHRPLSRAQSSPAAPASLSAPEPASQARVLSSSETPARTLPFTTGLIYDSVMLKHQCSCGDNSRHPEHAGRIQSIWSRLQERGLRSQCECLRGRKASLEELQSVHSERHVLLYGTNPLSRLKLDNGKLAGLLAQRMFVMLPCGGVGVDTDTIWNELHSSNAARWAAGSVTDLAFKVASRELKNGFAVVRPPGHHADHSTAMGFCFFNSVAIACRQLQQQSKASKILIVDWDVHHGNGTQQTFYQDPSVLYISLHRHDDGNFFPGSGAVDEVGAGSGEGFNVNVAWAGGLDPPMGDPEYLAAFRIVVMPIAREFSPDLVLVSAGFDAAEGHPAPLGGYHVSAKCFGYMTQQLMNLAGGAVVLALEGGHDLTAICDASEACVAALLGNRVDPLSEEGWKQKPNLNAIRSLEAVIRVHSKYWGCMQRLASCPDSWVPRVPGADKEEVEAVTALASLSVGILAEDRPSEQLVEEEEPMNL
Experimental: Measurement principle: The chemical activity of the compound is determined according to the degree of deacetylation inhibition of the HDAC enzyme. […] After the substrate containing an acetylated lysine side chain and HDAC enzyme are labeled with a fluorescent label, the fluorescent substrate is de acetyl. The fluorescent labeled substrate is cleaved by the enzyme, and the fluorescent substance is released, which generates 460 nm emission light under the excitation of 360 nm light.
Specific steps: HDAC substrate was diluted with reaction buffer to 200M (reaction concentration of 20M), the HDAC enzyme was diluted to the appropriate concentration, then added different concentrations of the test compounds and acted at 37 ? 30 minutes, and then added the same volume of 2-times concentration substrate developing solution (developer), incubated at room temperature for 15 minutes. Finally, the last reading measured with a microplate plate reader, excitation light was 360 nm, the emitted light was 460 nm, data processing software was Prime 4, and the results are shown in Table 1.

[3] = test system: A549 (human lung cancer cells); test: MTT cancer cell growth inhibition; format: cell-based; settings: 72 hours incubation
Excerpt: as §1, §2, §3, §4, §5, §6, §7, §8

[4] = test system: BGC-823 (human gastric cancer cells); test: MTT cancer cell growth inhibition; format: cell-based; settings: 72 hours incubation
Excerpt: as §1, §2, §3, §4, §5, §6, §7, §8

[5] = test system: DU145 (human prostate cancer cells); test: MTT cancer cell growth inhibition; format: cell-based; settings: 72 hours incubation
Excerpt: as §1, §2, §3, §4, §5, §6, §7, §8

[6] = test system: HT1080 (human fibrosarcoma cells); test: MTT cancer cell growth inhibition; format: cell-based; settings: 72 hours incubation
Excerpt: as §1, §2, §3, §4, §5, §6, §7, §8

[7] = test system: Hela (human cervical cancer cells); test: MTT cancer cell growth inhibition; format: cell-based; settings: 72 hours incubation
Excerpt: as §1, §2, §3, §4, §5, §6, §7, §8

[8] = test system: PANC-1 (Pac-1, human pancreatic cancer cells); test: MTT cancer cell growth inhibition; format: cell-based; settings: 72 hours incubation
Excerpt: as §1, §2, §3, §4, §5, §6, §7, §8

[9] = test system: lncap (prostate cancer cells); test: MTT cancer cell growth inhibition; format: cell-based; settings: 72 hours incubation
Excerpt: as §1, §2, §3, §4, §5, §6, §7, §8

[10] = test system: MCF-7 (human breast cancer cells); test: MTT cancer cell growth inhibition; format: cell-based; settings: 72 hours incubation, MCF-7 cells
Excerpt: as §1, §2, §3, §4, §5, §6, §7, §8

[11] = test system: U937 (human leukemia cells); test: MTT cancer cell growth inhibition; format: cell-based; settings: 72 hours incubation
Excerpt: as §1, §2, §3, §4, §5, §6, §7, §8

[12] = BGC-823 cells, read-out: GI50 BGC8
[13] = DU145 cells, read-out: GI50 Du14
[14] = HT1080 cells, read-out: GI50 HT10
[15] = Hela cells, read-out: GI50 Hela
[16] = MOLT-4 cells, read-out: GI50 Molt-
[17] = PANC-1 cells, read-out: GI50 PAN
[18] = lncap cells, read-out: GI50 lncap
[19] = A549 cells, read-out: GI50 A549

Compound | IC50 (μM) HDAC7 (HDAC7) | GI50 [4, 12] [µM] | GI50 [5, 13] [µM] | GI50 [6, 14] [µM] | GI50 [10] [nM] | GI50 [1, 16] [µM] | GI50 [9, 18] [µM] | other results
C/C=C1\NC(=O)c2cccc(n2)CNC(=O)C[C@@H](/C=C/CCSC(=O)CCCCCCC)OC(=O)[C@H](C(C)C)NC1=O [Compound 1] |  |  |  |  |  |  |  | GI50 ([1]; Homo sapiens, MOLT-4, 72 h, drug concentration required for 50% of cell growth inhibition, read-out: GI50 (μM) Molt-): 0.005 µM
C/C=C1\NC(=O)c2nc(ccc2F)CNC(=O)C[C@@H](/C=C/CCSC(C)=O)OC(=O)[C@H](C(C)C)NC1=O [Compound 93] |  |  |  |  |  |  |  | GI50 [2]: 28 nM
C/C=C1\NC(=O)c2ccc(F)c(n2)CNC(=O)C[C@@H](/C=C/CCSC(C)=O)OC(=O)[C@H](C(C)C)NC1=O [Compound 95] |  |  |  |  |  |  |  | GI50 [2]: 23 nM
C/C=C1\NC(=O)c2ncc(SC)c(n2)CNC(=O)C[C@@H](/C=C/CCSC(C)=O)OC(=O)[C@H](C(C)C)NC1=O [Compound 217] | no activity | 0.035 | 0.027 | 0.021 | 63 | 0.099 | 0.034 | GI50 [3, 19]: 0.072 µM; GI50 [8, 17]: 0.073 µM; GI50 [11]: 91 nM
C/C=C1\NC(=O)c2cc(SC)cc(n2)CNC(=O)C[C@@H](/C=C/CCSC(C)=O)OC(=O)[C@H](C(C)C)NC1=O [Compound 224] | no activity | 0.038 | 0.051 | 0.095 | 43 | 0.033 | 0.034 | GI50 [3, 19]: 0.058 µM; GI50 [7, 15]: 0.067 µM
C/C=C1\NC(=O)c2cccc(n2)CNC(=O)C[C@@H](/C=C/CCSC(=O)CCCCCCC)OC(=O)[C@@H](C)NC1=O [Compound 236] |  |  |  |  |  |  |  | GI50 ([9]; Homo sapiens, LNCaP, 72 h, lncap cells, read-out: GI50 lncap): 0.053 µM

More lines, main results first:

IC50 (μM) HDAC7 (HDAC7) | GI50 [4, 12] [µM] | GI50 [5, 13] [µM] | GI50 [6, 14] [µM] | GI50 [10] [nM] | GI50 [1, 16] [µM] | GI50 [9, 18] [µM] | Compound | other results
no activity |  |  |  |  |  |  | C/C=C1\NC(=O)c2nc(F)cc(n2)CNC(=O)C[C@@H](/C=C/CCSC(C)=O)OC(=O)[C@H](C(C)C)NC1=O [Compound 98] | GI50 ([3]; drug concentration required for 50% of cell growth inhibition, read-out: GI50 (μM) A549): 0.601 µM; GI50 ([4]; drug concentration required for 50% of cell growth inhibition, read-out: GI50 (μM) BGC8): 0.052 µM; GI50 ([5]; drug concentration required for 50% of cell growth inhibition, read-out: GI50 (μM) Du14): 0.042 µM; GI50 ([6]; drug concentration required for 50% of cell growth inhibition, read-out: GI50 (μM) HT10): 0.083 µM; GI50 ([7]; drug concentration required for 50% of cell growth inhibition, read-out: GI50 (μM) Hela): 0.052 µM; GI50 ([1]; drug concentration required for 50% of cell growth inhibition, read-out: GI50 (μM) Molt-): 0.025 µM; GI50 ([8]; drug concentration required for 50% of cell growth inhibition, read-out: GI50 (μM) PAN): 0.083 µM; GI50 ([9]; drug concentration required for 50% of cell growth inhibition, read-out: GI50 (μM) lncap): 0.025 µM
no activity | 0.066 | 0.029 | 0.058 | 55 | 0.046 | 0.016 | C/C=C1\NC(=O)c2nc(cc(SC)n2)CNC(=O)C[C@@H](/C=C/CCSC(C)=O)OC(=O)[C@H](C(C)C)NC1=O [Compound 216] | GI50 [7, 15]: 0.076 µM; GI50 [8, 17]: 0.021 µM; GI50 [11]: 86 nM
